Source: ChEMBL document CHEMBL2074386, “Saquinavir, an HIV protease inhibitor, is transported by P-glycoprotein” (J Pharmacol Exp Ther, 1998)

What was measured:
[1] = target: T1, ATP-dependent translocase ABCB1 (Homo sapiens, UniProt P08183); assay: TP_TRANSPORTER: transepithelial transport (basal to apical) in HCT-8 cells; assay type: functional, cell-based
[2] = target: T1, ATP-dependent translocase ABCB1; assay: TP_TRANSPORTER: inhibition of Rhodamine 123 transepithelial transport (basal to apical) (R123: 13 uM, Saquinavir: 20uM) in HCT-8 cells; assay type: functional, cell-based; conditions: hct-8, 20 µM

T1 sequence (P08183 whole entry): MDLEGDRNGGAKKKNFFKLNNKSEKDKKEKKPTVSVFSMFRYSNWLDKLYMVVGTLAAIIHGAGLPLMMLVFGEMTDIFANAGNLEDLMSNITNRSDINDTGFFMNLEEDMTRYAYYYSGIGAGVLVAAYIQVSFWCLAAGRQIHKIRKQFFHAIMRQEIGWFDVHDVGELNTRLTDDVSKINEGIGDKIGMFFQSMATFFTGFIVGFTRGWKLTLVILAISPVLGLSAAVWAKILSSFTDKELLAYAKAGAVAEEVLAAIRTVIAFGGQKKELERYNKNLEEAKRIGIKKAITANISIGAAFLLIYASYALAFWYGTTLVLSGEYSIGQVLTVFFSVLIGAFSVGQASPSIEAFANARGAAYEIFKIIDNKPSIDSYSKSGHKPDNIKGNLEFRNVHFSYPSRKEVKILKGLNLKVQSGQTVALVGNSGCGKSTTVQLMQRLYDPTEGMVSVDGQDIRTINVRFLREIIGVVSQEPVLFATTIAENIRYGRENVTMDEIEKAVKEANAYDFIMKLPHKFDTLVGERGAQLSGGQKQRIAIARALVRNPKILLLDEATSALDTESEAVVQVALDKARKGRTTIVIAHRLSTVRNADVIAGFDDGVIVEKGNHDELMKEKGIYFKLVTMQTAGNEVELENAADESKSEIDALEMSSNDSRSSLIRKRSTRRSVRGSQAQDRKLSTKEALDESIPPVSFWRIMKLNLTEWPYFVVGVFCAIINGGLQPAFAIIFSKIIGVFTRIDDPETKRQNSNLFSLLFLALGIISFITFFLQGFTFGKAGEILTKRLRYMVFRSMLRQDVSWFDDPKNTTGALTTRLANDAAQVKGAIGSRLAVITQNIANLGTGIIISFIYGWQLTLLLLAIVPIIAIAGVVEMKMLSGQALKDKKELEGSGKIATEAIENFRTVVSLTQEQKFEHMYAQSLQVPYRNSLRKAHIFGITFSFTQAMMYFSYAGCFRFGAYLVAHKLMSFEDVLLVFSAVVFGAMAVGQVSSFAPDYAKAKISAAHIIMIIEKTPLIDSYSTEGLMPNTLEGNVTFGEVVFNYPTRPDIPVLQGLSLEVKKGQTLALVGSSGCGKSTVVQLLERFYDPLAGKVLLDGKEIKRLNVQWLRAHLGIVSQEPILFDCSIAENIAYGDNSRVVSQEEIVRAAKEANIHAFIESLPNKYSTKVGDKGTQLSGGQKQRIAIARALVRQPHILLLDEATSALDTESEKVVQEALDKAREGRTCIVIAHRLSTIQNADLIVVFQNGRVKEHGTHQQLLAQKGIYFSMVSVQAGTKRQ

In the case of `COC(=O)c1ccccc1-c1c2ccc(=N)cc-2oc2cc(N)ccc12.Cl` [RHODAMINE123], the Activity [1] is reported as “substrate [+]”.

For `CC(C)(C)NC(=O)[C@@H]1C[C@@H]2CCCC[C@@H]2CN1C[C@@H](O)[C@H](Cc1ccccc1)NC(=O)[C@H](CC(N)=O)NC(=O)c1ccc2ccccc2n1`, the Activity [1] was “substrate [+]” and the Activity [2] was “inhibitor [(at a rough estimate) 45 % of control]”.
